Molecular target: WDR5 (Homo sapiens (Human), UniProt P61964)
Experiment: Surface Plasmon Resonance (SPR) assay, KD and residence time
Assay type: binding
Conditions: surface plasmon resonance (SPR) assay; read-out: WDR5 binding affinity (KD)

Kd [nM] | Compound
15.6 | C[C@@H]1CN(c2cc(F)c(-c3ccc(OCC4CC4)nc3)cc2NC(=O)c2ccc(F)cc2Cl)C[C@H](C)N1C [Example 251, 2-chloro-N-[5-[6-(cyclopropylmethoxy)pyridin-3-yl]-4-fluoro-2-[(3R,5S)-3,4,5-trimethylpiperazin-1-yl]phenyl]-4-fluorobenzamide]
2.79 | CC(=O)N1CC=C(c2cc(NC(=O)c3c[nH]c(=O)cc3C(F)(F)F)c(N3C[C@@H](C)N(C)[C@@H](C)C3)cc2F)CC1 [Example 252, N-[5-(1-acetyl-3,6-dihydro-2H-pyridin-4-yl)-4-fluoro-2-[(3R,5S)-3,4,5-trimethylpiperazin-1-yl]phenyl]-6-oxo-4-(trifluoromethyl)-H-pyridine-3-carboxamide]
3.3 | CCOC(=O)N1CC=C(c2cc(NC(=O)c3c[nH]c(=O)cc3C(F)(F)F)c(N3C[C@@H](C)N(C)[C@@H](C)C3)cc2F)CC1 [Example 253, ethyl 4-[2-fluoro-5-[[6-oxo-4-(trifluoromethyl)-1H-pyridine-3-carbonyl]amino]-4-[(3R,5S)-3,4,5-trimethylpiperazin-1-yl]phenyl]-3,6-dihydro-2H-pyridine-1-carboxylate]
3.34 | CC(C)COC(=O)N1CC=C(c2cc(NC(=O)c3c[nH]c(=O)cc3C(F)(F)F)c(N3C[C@@H](C)N(C)[C@@H](C)C3)cc2F)CC1 [Example 254, 2-methylpropyl 4-[2-fluoro-5-[[6-oxo-4-(trifluoromethyl)-1H-pyridine-3-carbonyl]amino]-4-[(3R,5S)-3,4,5-trimethylpiperazin-1-yl]phenyl]-3,6-dihydro-2H-pyridine-1-carboxylate]
1.98 | C[C@@H]1CN(c2cc(F)c(C3=CCN(C(=O)CC(C)(C)C)CC3)cc2NC(=O)c2c[nH]c(=O)cc2C(F)(F)F)C[C@H](C)N1C [Example 255, N-[5-[1-(3,3-dimethylbutanoyl)-3,6-dihydro-2H-pyridin-4-yl]-4-fluoro-2-[(3R,5S)-3,4,5-trimethylpiperazin-1-yl]phenyl]-6-oxo-4-(trifluoromethyl)-1H-pyridine-3-carboxamide]
11.8 | C[C@@H]1CN(c2cc(F)c(C3CCN(C(=O)CC(C)(C)C)CC3)cc2NC(=O)c2c[nH]c(=O)cc2C(F)(F)F)C[C@H](C)N1C [Example 256, N-[5-[1-(3,3-dimethylbutanoyl)piperidin-4-yl]-4-fluoro-2-[(3R,5S)-3,4,5-trimethylpiperazin-1-yl]phenyl]-6-oxo-4-(trifluoromethyl)-1H-pyridine-3-carboxamide]
1.7 | C[C@@H]1CN(c2cc(F)c(-c3ccc(F)nc3)cc2NC(=O)c2c[nH]c(=O)cc2C(F)(F)F)C[C@H](C)N1C [Example 257, N-[4-fluoro-5-(6-fluoropyridin-3-yl)-2-[(3R,5S)-3,4,5-trimethylpiperazin-1-yl]phenyl]-6-oxo-4-(trifluoromethyl)-1H-pyridine-3-carboxamide]
66.1 | CN(C)C1CCN(c2cc(F)c(-c3cnc(N4CCOCC4)nc3)cc2NC(=O)c2c[nH]c(=O)cc2C(F)(F)F)CC1 [Example 258, N-[2-[4-(dimethylamino)piperidin-1-yl]-4-fluoro-5-(2-morpholin-4-ylpyrimidin-5-yl)phenyl]-6-oxo-4-(trifluoromethyl)-1H-pyridine-3-carboxamide]
1.64 | C[C@@H]1CN(c2cc(F)c(-c3ccc(N4CCCC4)nc3)cc2NC(=O)c2c[nH]c(=O)cc2C(F)(F)F)C[C@H](C)N1C [Example 261, N-[4-fluoro-5-(6-pyrrolidin-1-ylpyridin-3-yl)-2-[(3R,5S)-3,4,5-trimethylpiperazin-1-yl]phenyl]-6-oxo-4-(trifluoromethyl)-1H-pyridine-3-carboxamide]

More lines, now with the values behind:

Compound | Kd [nM]
C[C@@H]1CN(c2cc(F)c(-c3ccc(OCC4CC4)cc3)cc2NC(=O)c2cn(C)c(=O)cc2C(F)(F)F)C[C@H](C)N1C [Example 228, N-[5-[4-(cyclopropylmethoxy)phenyl]-4-fluoro-2-[(3R,5S)-3,4,5-trimethylpiperazin-1-yl]phenyl]-1-methyl-6-oxo-4-(trifluoromethyl)pyridine-3-carboxamide] | 7.26
C[C@@H]1CN(c2cc(F)c(-c3cnc(N4CCOCC4)nc3)cc2NC(=O)c2cccc(F)c2F)C[C@H](C)N1C [Example 229, 2,3-difluoro-N-[4-fluoro-5-(2-morpholin-4-ylpyrimidin-5-yl)-2-[(3R,5S)-3,4,5-trimethylpiperazin-1-yl]phenyl]benzamide] | 83
C[C@@H]1CN(c2cc(F)c(C3=CCN(C4CCCC4)CC3)cc2NC(=O)c2c[nH]c(=O)cc2C(F)(F)F)C[C@H](C)N1C [Example 231, N-[5-(1-cyclopentyl-3,6-dihydro-2H-pyridin-4-yl)-4-fluoro-2-[(3R,5S)-3,4,5-trimethylpiperazin-1-yl]phenyl]-6-oxo-4-(trifluoromethyl)-1H-pyridine-3-carboxamide] | 2.51
COc1ccc(C(C)N2CC=C(c3cc(NC(=O)c4c[nH]c(=O)cc4C(F)(F)F)c(N4C[C@@H](C)N(C)[C@@H](C)C4)cc3F)CC2)cc1 (stereo partly drawn) [Example 232, N-[4-fluoro-5-[1-[1-(4-methoxyphenyl)ethyl]-3,6-dihydro-2H-pyridin-4-yl]-2-[(3R,5S)-3,4,5-trimethylpiperazin-1-yl]phenyl]-6-oxo-4-(trifluoromethyl)-1H-pyridine-3-carboxamide] | 2.72
CCC(C)N1CC=C(c2cc(NC(=O)c3c[nH]c(=O)cc3C(F)(F)F)c(N3C[C@@H](C)N(C)[C@@H](C)C3)cc2F)CC1 (stereo partly drawn) [Example 233, N-[5-(1-butan-2-yl-3,6-dihydro-2H-pyridin-4-yl)-4-fluoro-2-[(3R,5S)-3,4,5-trimethylpiperazin-1-yl]phenyl]-6-oxo-4-(trifluoromethyl)-1H-pyridine-3-carboxamide] | 3.89
CN(C)[C@@H]1CCN(c2cc(F)c(-c3ccc(N4CCOCC4)nc3)cc2NC(=O)c2c[nH]c(=O)cc2C(F)(F)F)C1 [Example 234, N-[4-fluoro-5-(6-morpholin-4-ylpyridin-3-yl)-2-[(3R)-3-(dimethylamino)pyrrolidin-1-yl]phenyl]-6-oxo-4-(trifluoromethyl)-1H-pyridine-3-carboxamide] | 1.86
C[C@@H]1CN(c2cc(F)c(C3=CCN(C4COC4)CC3)cc2NC(=O)c2c[nH]c(=O)cc2C(F)(F)F)C[C@H](C)N1C [Example 235, N-[4-fluoro-5-[1-(oxetan-3-yl)-3,6-dihydro-2H-pyridin-4-yl]-2-[(3R,5S)-3,4,5-trimethylpiperazin-1-yl]phenyl]-6-oxo-4-(trifluoromethyl)-1H-pyridine-3-carboxamide] | 0.943
C[C@@H]1CN(c2cc(F)c(C3CCNCC3)cc2NC(=O)c2c[nH]c(=O)cc2C(F)(F)F)C[C@H](C)N1C [Example 236, N-[4-fluoro-5-piperidin-4-yl-2-[(3R,5S)-3,4,5-trimethylpiperazin-1-yl]phenyl]-6-oxo-4-(trifluoromethyl)-1H-pyridine-3-carboxamide] | 31.1
CN(C)[C@@H]1CCN(c2cc(F)c(-c3ccc(O)nc3)cc2NC(=O)c2c[nH]c(=O)cc2C(F)(F)F)C1 [Example 237, N-[4-fluoro-5-(6-hydroxypyridin-3-yl)-2-[(3R)-3-(dimethylamino)pyrrolidin-1-yl]phenyl]-6-oxo-4-(trifluoromethyl)-1H-pyridine-3-carboxamide] | 9.33
CN(C)[C@@H]1CCN(c2cc(F)c(-c3ccc(OCC4CC4)nc3)cc2NC(=O)c2c[nH]c(=O)cc2C(F)(F)F)C1 [Example 238, N-[5-[6-(cyclopropylmethoxy)pyridin-3-yl]-4-fluoro-2-[(3R)-3-(dimethylamino)pyrrolidin-1-yl]phenyl]-6-oxo-4-(trifluoromethyl)-1H-pyridine-3-carboxamide] | 5.11
C[C@@H]1CN(c2cc(F)c(C3=CCN(C4CCN(C)CC4)CC3)cc2NC(=O)c2c[nH]c(=O)cc2C(F)(F)F)C[C@H](C)N1C [Example 242, N-[4-fluoro-5-[1-(1-methylpiperidin-4-yl)-3,6-dihydro-2H-pyridin-4-yl]-2-[(3R,5S)-3,4,5-trimethylpiperazin-1-yl]phenyl]-6-oxo-4-(trifluoromethyl)-1H-pyridine-3-carboxamide] | 3.49
C[C@@H]1CN(c2cc(F)c(C3=CCN(C(=O)C(C)(C)C)CC3)cc2NC(=O)c2c[nH]c(=O)cc2C(F)(F)F)C[C@H](C)N1C [Example 243, N-[5-[1-(2,2-dimethylpropanoyl)-3,6-dihydro-2H-pyridin-4-yl]-4-fluoro-2-[(3R,5S)-3,4,5-trimethylpiperazin-1-yl]phenyl]-6-oxo-4-(trifluoromethyl)-1H-pyridine-3-carboxamide] | 2.16
C[C@@H]1CN(c2cc(F)c(C3CCN(C(=O)C(C)(C)C)CC3)cc2NC(=O)c2c[nH]c(=O)cc2C(F)(F)F)C[C@H](C)N1C [Example 244, N-[5-[1-(2,2-dimethylpropanoyl)piperidin-4-yl]-4-fluoro-2-[(3R,5S)-3,4,5-trimethylpiperazin-1-yl]phenyl]-6-oxo-4-(trifluoromethyl)-1H-pyridine-3-carboxamide] | 1.97
C[C@@H]1CN(c2ncc(-c3cc(NC(=O)c4cn(C)c(=O)cc4C(F)(F)F)c(N4C[C@@H](C)N(C)[C@@H](C)C4)cc3F)cn2)C[C@H](C)O1 [Example 246, N-[4-fluoro-5-[2-[(2R,6S)-2,6-dimethylmorpholin-4-yl]pyrimidin-5-yl]-2-[(3S,5R)-3,4,5-trimethylpiperazin-1-yl]phenyl]-1-methyl-6-oxo-4-(trifluoromethyl)pyridine-3-carboxamide] | 2.51
C[C@@H]1CN(c2cc(F)c(C3=CCN(S(C)(=O)=O)C3)cc2NC(=O)c2c[nH]c(=O)cc2C(F)(F)F)C[C@H](C)N1C [Example 249, N-[4-fluoro-5-(1-methylsulfonyl-2,5-dihydropyrrol-3-yl)-2-[(3R,5S)-3,4,5-trimethylpiperazin-1-yl]phenyl]-6-oxo-4-(trifluoromethyl)-1H-pyridine-3-carboxamide] | 0.665
C[C@@H]1CN(c2cc(F)c(-c3ccc(OCC4CC4)nc3)cc2NC(=O)c2cc(Cl)cc(Cl)c2)C[C@H](C)N1C [Example 250, 3,5-dichloro-N-[5-[6-(cyclopropylmethoxy)pyridin-3-yl]-4-fluoro-2-[(3R,5S)-3,4,5-trimethylpiperazin-1-yl]phenyl]benzamide] | 76.9
